The text below walks through data of ChEMBL document CHEMBL1201862, “PubChem BioAssay data set” (2004).

Among the test systems are Malme-3M; Hs-578T; A498; SNB-19; UACC-62; MOLT-4; COLO 205; HCC 2998; RPMI-8226; SF-268; HCT-116; TK-10; SK-MEL-28; NCI-H460; A549; MDA-MB-231; SK-OV-3; NCI/ADR-RES; OVCAR-4; SNB-75.
Holding throughout (test): NCI-60 cell line screen, 48 h

The structures appear in SMILES notation.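 Five concentrations, 48 hours, 96-well plates. At the GI50, growth is halved.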 Calls of active or inactive are those of the source. Cut-off read from the data, not from the text of the source: active = GI50 up to about 1.1 µM and inactive = higher.

Regarding `O=C1c2ccccc2C(=O)N1c1ccc(OCCN2CCCCC2)cc1`, the GI50 in the assay with Malme-3M, in the assay with Hs-578T, in the assay with A498, in the assay with SNB-19, in the assay on UACC-62 and in the assay on MOLT-4 was > 100 µM (inactive) in each case. The GI50 in the assay with COLO 205, in the assay with HCC 2998, with RPMI-8226, in the assay on SF-268, in the assay with HCT-116 and in the assay on TK-10 was > 100 µM (inactive) throughout. Moreover, the GI50 with SK-MEL-28, in the assay with NCI-H460, in the assay on A549, in the assay on MDA-MB-231, in the assay with SK-OV-3 and in the assay with NCI/ADR-RES was > 100 µM (inactive) each time. In addition, the GI50 in the assay with OVCAR-4 is > 100 µM (inactive).
For the compound `COCC12CCC(OC)C34C5CC6(O)C(OC)CC(OC(C)=O)(C5C6OC(=O)c5ccccc5)C(C(OC)C13)C4N(C)C2` (stereo not given), the GI50 in the assay on Malme-3M, in the assay with Hs-578T, in the assay on A498, in the assay with SNB-19, in the assay on UACC-62 and in the assay on MOLT-4 was > 100 µM (inactive) throughout. The GI50 in the assay with COLO 205, in the assay with HCC 2998, in the assay on RPMI-8226, in the assay on SF-268, with HCT-116 and with TK-10 was > 100 µM (inactive) each time. The GI50 is > 100 µM (inactive) in the assay on SK-MEL-28; > 100 µM (inactive) with NCI-H460; > 100 µM (inactive) with A549; > 100 µM (inactive) in the assay on MDA-MB-231; 43 µM (inactive) with SK-OV-3; > 100 µM (inactive) in the assay with NCI/ADR-RES. Moreover, the GI50 in the assay on OVCAR-4 is > 100 µM (inactive).
Take `O=C1CCCCCCCCCCC1CCCCCBr` (stereo not given): the GI50 in the assay with Malme-3M was 15.8 µM (inactive); in the assay on Hs-578T, 46.8 µM (inactive); in the assay on A498, 14.4 µM (inactive); with SNB-19 it was 25.8 µM (inactive); in the assay on SNB-75, 16.3 µM (inactive); with UACC-62, 31.1 µM (inactive). Also, the GI50 is 17.1 µM (inactive) in the assay with MOLT-4; 19.4 µM (inactive) in the assay with COLO 205; 18.5 µM (inactive) with HCC 2998; 30.8 µM (inactive) with SF-268; 17 µM (inactive) in the assay with HCT-116; 44 µM (inactive) in the assay with TK-10. The GI50 was 19.9 µM (inactive) in the assay on SK-MEL-28; 36.6 µM (inactive) in the assay on NCI-H460; 29.4 µM (inactive) in the assay on A549; 20.3 µM (inactive) in the assay with MDA-MB-231; 57.9 µM (inactive) in the assay with SK-OV-3; 21.7 µM (inactive) in the assay with NCI/ADR-RES. Besides, in the assay with OVCAR-4, the GI50 is 16.9 µM (inactive).
As for `O=C(C[N+]12CN3CN(CN(C3)C1)C2)c1ccc(-c2ccccc2)cc1`, the GI50 in the assay on Malme-3M was 21.3 µM (inactive); in the assay with Hs-578T it was 32.7 µM (inactive); in the assay on A498 it was 19.6 µM (inactive); with SNB-19 it was 22.6 µM (inactive); with SNB-75, 19.7 µM (inactive); in the assay on UACC-62, 16.1 µM (inactive). In addition, the GI50 in the assay with MOLT-4 was 16.7 µM (inactive); in the assay with HCC 2998 it was 15.4 µM (inactive); with SF-268, 19.4 µM (inactive); with HCT-116 it was 18.8 µM (inactive); with TK-10, 21.2 µM (inactive); with SK-MEL-28, 17.6 µM (inactive). Moreover, the GI50 with NCI-H460 is 13.7 µM (inactive); in the assay on A549 it was 30.1 µM (inactive); in the assay on MDA-MB-231, 16.2 µM (inactive); with NCI/ADR-RES it was 33.4 µM (inactive); in the assay on OVCAR-4 it was 51.4 µM (inactive).
As to `O=S(=O)(c1cc(Cl)ccc1Cl)N1CCN(S(=O)(=O)c2cc(Cl)ccc2Cl)CC1`, the GI50 with Malme-3M is > 100 µM (inactive); in the assay on Hs-578T it was 19.8 µM (inactive); in the assay with A498, > 100 µM (inactive); with SNB-19 it was > 100 µM (inactive); in the assay on SNB-75, > 100 µM (inactive); in the assay on UACC-62, 0.489 µM (active). Further, the GI50 in the assay with MOLT-4, in the assay on HCC 2998, in the assay on SF-268, in the assay on HCT-116, in the assay on TK-10 and with SK-MEL-28 was > 100 µM (inactive) throughout. The GI50 with NCI-H460, in the assay with A549, in the assay with MDA-MB-231 and in the assay with NCI/ADR-RES was > 100 µM (inactive) in each case.
Regarding `COc1ccc(-c2cc(=O)c3c(O)cc(C)cc3o2)cc1OC`, the GI50 was > 100 µM (inactive) in the assay with Malme-3M; > 100 µM (inactive) in the assay on Hs-578T; > 100 µM (inactive) in the assay on SNB-19; 67.1 µM (inactive) in the assay with SNB-75; > 100 µM (inactive) in the assay on UACC-62; > 100 µM (inactive) in the assay on MOLT-4. For the same compound, the GI50 in the assay on COLO 205 was > 100 µM (inactive); with HCC 2998 it was 79.6 µM (inactive); in the assay on RPMI-8226, > 100 µM (inactive); in the assay on SF-268, > 100 µM (inactive); in the assay with HCT-116 it was > 100 µM (inactive); with TK-10, > 100 µM (inactive). For the same compound, the GI50 with SK-MEL-28, in the assay with NCI-H460, with A549, in the assay on MDA-MB-231, with SK-OV-3 and in the assay on NCI/ADR-RES was > 100 µM (inactive) each time. Further, the GI50 in the assay on OVCAR-4 is > 100 µM (inactive).
In the case of `O=S(=O)(Nc1nc2ccccc2nc1Nc1cccc2ccccc12)c1ccccc1`, the GI50 in the assay with Malme-3M is 4.48 µM (inactive); in the assay with Hs-578T, 21.1 µM (inactive); in the assay on SNB-19 it was 20.1 µM (inactive); in the assay with SNB-75, 15.5 µM (inactive); in the assay on UACC-62, 8.59 µM (inactive); with HCC 2998, 2.16 µM (inactive). Further, the GI50 is 2.73 µM (inactive) in the assay with RPMI-8226; 26.5 µM (inactive) in the assay on SF-268; 17.7 µM (inactive) in the assay on HCT-116; 8.93 µM (inactive) with TK-10; 25.9 µM (inactive) in the assay with SK-MEL-28; 4.41 µM (inactive) in the assay on NCI-H460. The GI50 is 7.35 µM (inactive) in the assay with A549; 13.6 µM (inactive) in the assay with MDA-MB-231; 19.9 µM (inactive) with SK-OV-3; 13.6 µM (inactive) in the assay with NCI/ADR-RES; 1.24 µM (inactive) in the assay on OVCAR-4.
On to `CN(C)CCNc1nc(-c2ccc3ccccc3c2)nc2[nH]cnc12`, for which the GI50 is 4.51 µM (inactive) in the assay with Malme-3M; 5.18 µM (inactive) in the assay on Hs-578T; 14 µM (inactive) in the assay on SNB-19; 1.1 µM (active) with SNB-75; 10.8 µM (inactive) in the assay with UACC-62; 3.55 µM (inactive) in the assay on MOLT-4. Further, the GI50 in the assay with COLO 205 is 7.55 µM (inactive); in the assay on HCC 2998, 1.99 µM (inactive); with RPMI-8226, 22.2 µM (inactive); with SF-268, 8.22 µM (inactive); with HCT-116, 8.83 µM (inactive); in the assay with TK-10 it was 6.38 µM (inactive). Further, the GI50 was 13.6 µM (inactive) with SK-MEL-28; 3.66 µM (inactive) with NCI-H460; 12.5 µM (inactive) with A549; 11.2 µM (inactive) with MDA-MB-231; 7.48 µM (inactive) in the assay with SK-OV-3; 7.33 µM (inactive) in the assay on NCI/ADR-RES. The GI50 in the assay with OVCAR-4 is 10.7 µM (inactive).
On to `COc1cccc2c1C(=O)c1c(O)c3c(c(O)c1C2=O)CC(O)(C(O)CO)CC3OC1CC2C(OC3COCC(C#N)N32)C(C)O1` (stereo not given), for which the GI50 in the assay on Malme-3M, in the assay with Hs-578T, in the assay on A498, in the assay on SNB-19, with SNB-75 and in the assay with UACC-62 was < 0.01 µM (active) in each case. The GI50 in the assay on MOLT-4, in the assay with COLO 205, in the assay with HCC 2998, in the assay with SF-268, in the assay on HCT-116 and with TK-10 was < 0.01 µM (active) throughout. For the same compound, the GI50 in the assay with SK-MEL-28, in the assay on NCI-H460, with A549, with MDA-MB-231, in the assay with SK-OV-3 and in the assay on NCI/ADR-RES was < 0.01 µM (active) each time. The GI50 in the assay with OVCAR-4 is < 0.01 µM (active).
Regarding `NCCO/C=C/C(N)C(=O)O` (stereo not given) [AMINOETHOXYVINYLGLYCINE], the GI50 in the assay on Hs-578T, in the assay with SNB-19, in the assay with SNB-75, with UACC-62, with COLO 205 and in the assay with HCC 2998 was > 100 µM (inactive) in each case. The GI50 in the assay on RPMI-8226, in the assay on SF-268, in the assay with HCT-116, in the assay with TK-10, in the assay on SK-MEL-28 and in the assay with NCI-H460 was > 100 µM (inactive) throughout. The GI50 in the assay on A549, in the assay with MDA-MB-231, in the assay with SK-OV-3, in the assay on NCI/ADR-RES and in the assay on OVCAR-4 was > 100 µM (inactive) throughout.
For the compound `NCCCCCNOCCCN`, the GI50 in the assay with Malme-3M was > 100 µM (inactive); in the assay with Hs-578T it was > 100 µM (inactive); with SNB-19, > 100 µM (inactive); in the assay with SNB-75 it was 63.1 µM (inactive); with UACC-62, > 100 µM (inactive); in the assay with MOLT-4, > 100 µM (inactive). Moreover, the GI50 in the assay on COLO 205, in the assay with HCC 2998, with RPMI-8226, in the assay on SF-268, in the assay on HCT-116 and with TK-10 was > 100 µM (inactive) each time. The GI50 in the assay on SK-MEL-28, in the assay on NCI-H460, in the assay with A549, with MDA-MB-231, in the assay on SK-OV-3 and in the assay with NCI/ADR-RES was > 100 µM (inactive) throughout. Also, the GI50 in the assay with OVCAR-4 is > 100 µM (inactive).
